Source: US8435978B2, “Substituted sulfonamide compounds” (Gruenenthal GmbH, priority 2006, dated 2013)
Counter-ions that a name gives are not always drawn.

Legend:
human B1R receptor = biological target: T1, human B1R receptor (Homo sapiens, UniProt P46663); experiment: Functional study on the bradykinin receptor 1 (B1R), FLIPR Ca2+ assay, hB1R cells; assay type: cell-based; conditions: agonist Lys-Des-Arg9-bradykinin 0.5 nM, % inhibition compared with the maximum achievable inhibition; for inhibition at 10 µM: CHO-K1, test substance 10 μM, read-out: B1R Antagonism, human [10 μM] % Inhibition; for B1R Antagonism, human [10 μM] % Inhibition: test substance 10 μM, hB1R CHO K1 cells
T1 construct: host or cells: CHO K1 cells (Chinese hamster ovary), stably transfected
T1 sequence (P46663 1-353): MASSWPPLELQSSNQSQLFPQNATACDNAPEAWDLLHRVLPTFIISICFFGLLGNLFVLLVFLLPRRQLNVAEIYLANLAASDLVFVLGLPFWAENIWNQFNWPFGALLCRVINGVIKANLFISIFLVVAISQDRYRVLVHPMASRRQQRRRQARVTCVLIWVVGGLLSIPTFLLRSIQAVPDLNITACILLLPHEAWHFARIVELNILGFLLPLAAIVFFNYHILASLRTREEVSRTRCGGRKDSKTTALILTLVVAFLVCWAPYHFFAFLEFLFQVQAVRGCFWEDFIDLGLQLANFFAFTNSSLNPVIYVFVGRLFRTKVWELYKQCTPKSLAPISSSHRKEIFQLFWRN
How it was run: (§1)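 CHO K1 cells stably expressing human or rat B1R, Fluo-4-loaded; test compound 10 μM added first (activation % vs agonist), then after 10 min 0.5 nM Lys-Des-Arg9-bradykinin (human) or 100 nM Des-Arg9-bradykinin (rat). Ca2+ peak fluorescence by FLIPR; % inhibition relative to maximum achievable inhibition.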

B1R receptor of the rat = biological target: T2, B1R receptor of the rat (Rattus norvegicus, UniProt P97583); experiment: Functional study on the bradykinin receptor 1 (B1R), FLIPR Ca2+ assay, rB1R cells; assay type: cell-based; conditions: agonist Des-Arg9-bradykinin 100 nM, % inhibition compared with the maximum achievable inhibition; for inhibition at 10 µM: CHO-K1, test substance 10 μM, read-out: B1R Antagonism, rat [10 μM] % Inhibition; for B1R Antagonism, rat [10 μM] % Inhibition: test substance 10 μM, rB1R CHO K1 cells
T2 construct: host or cells: CHO K1 cells (Chinese hamster ovary), stably transfected
T2 sequence (P97583 1-337): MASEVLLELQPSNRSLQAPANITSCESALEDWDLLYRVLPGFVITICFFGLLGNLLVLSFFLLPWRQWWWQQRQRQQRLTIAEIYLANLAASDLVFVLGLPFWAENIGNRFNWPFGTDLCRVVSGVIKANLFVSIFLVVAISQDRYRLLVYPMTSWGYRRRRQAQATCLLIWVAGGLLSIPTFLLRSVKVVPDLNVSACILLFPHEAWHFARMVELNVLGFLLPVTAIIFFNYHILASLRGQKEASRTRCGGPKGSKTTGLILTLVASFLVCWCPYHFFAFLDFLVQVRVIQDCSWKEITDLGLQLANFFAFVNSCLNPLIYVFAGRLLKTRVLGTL
How it was run: as §1

inhibition at 10 µM (human B1R receptor) | inhibition at 10 µM (B1R receptor of the rat) | B1R Antagonism, human [10 μM] % Inhibition (human B1R receptor) | B1R Antagonism, rat [10 μM] % Inhibition (B1R receptor of the rat) | SMILES
92.6% | 92.2% |  |  | O=C(COCC1CCCN1S(=O)(=O)c1c(Cl)cc(Cl)cc1Cl)NCCN1CCCCC1 (stereo not drawn) [Example 338, N-(2-(piperidin-1-yl)ethyl)-2-((1-(2,4,6-trichlorophenylsulfonyl)pyrrolidin-2-yl)methoxy)acetamide]
105% | 98.2% |  |  | O=C(COCC1CCCN1S(=O)(=O)c1c(Cl)cc(Cl)cc1Cl)N1CCN(CCc2ccccc2)CC1 (stereo not drawn) [Example 329, 1-(4-phenethylpiperazin-1-yl)-2-((1-(2,4,6-trichlorophenylsulfonyl)pyrrolidin-2-yl)methoxy)ethanone]
85.4% | 97.7% |  |  | Cc1cc(C)c(S(=O)(=O)N2CCCCC2COCC(=O)N2CCCC2CN2CCCCC2)c(C)c1 (stereo not drawn) [Example 27, 1-(2-piperidin-1-ylmethyl-pyrrolidin-1-yl)-2-[1-(2,4,6-trimethyl-phenylsulfonyl)-piperidin-2-ylmethoxy]-ethanone]
 |  | 87.21% | 99.56% | COc1cc(C)c(S(=O)(=O)N2CCCCC2COCC(=O)N(CCN(C)C)Cc2ccccc2)c(C)c1 (stereo not drawn) [Example 377]
101% | 98.2% |  |  | COc1cc(C)c(S(=O)(=O)N2CCCCC2COCC(=O)N2CCC(N3CCn4ccnc4C3)CC2)c(C)c1 (stereo not drawn) [Example 144, 1-(4-(5,6-dihydroimidazo[1,2-a]pyrazin-7(8H)-yl)piperidin-1-yl)-2-((1-(4-methoxy-2,6-dimethylphenylsulfonyl)piperidin-2-yl)methoxy)ethanone]
97.8% | 102% |  |  | CN(CCc1ccncc1)C(=O)COCC1CCCCN1S(=O)(=O)c1c(Cl)cc(Cl)cc1Cl (stereo not drawn) [Example 391, N-methyl-N-(2-(pyridin-4-yl)ethyl)-2-((1-(2,4,6-trichlorophenylsulfonyl)piperidin-2-yl)methoxy)acetamide]
100% | 101% |  |  | O=C(COCC1CCCCN1S(=O)(=O)c1c(Cl)cccc1Cl)N1CCCC1Cc1ccccn1 (stereo not drawn) [Example 456, 2-((1-(2,6-dichlorophenylsulfonyl)piperidin-2-yl)methoxy)-1-(2-(pyridin-2-ylmethyl)pyrrolidin-1-yl)ethanone]
12.6% | 100% |  |  | COc1cc(C)c(S(=O)(=O)N2CCCCC2COCC(=O)Nc2cccnc2N2CCOCC2)c(C)c1 (stereo not drawn) [Example 395, 2-((1-(4-methoxy-2,6-dimethylphenylsulfonyl)piperidin-2-yl)methoxy)-N-(2-morpholinopyridin-3-yl)acetamide]
99.2% | 97.1% |  |  | COc1cc(C)c(S(=O)(=O)N2CCCCC2COCC(=O)N2CCN(c3ncnc4ccsc34)CC2)c(C)c1 (stereo not drawn) [Example 113, 2-((1-(4-methoxy-2,6-dimethylphenylsulfonyl)piperidin-2-yl)methoxy)-1-(4-(thieno[3,2-d]pyrimidin-4-yl)piperazin-1-yl)ethanone]
101% | 99.1% |  |  | CN(C(=O)COCC1CCCCN1S(=O)(=O)c1c(Cl)cc(Cl)cc1Cl)C(CN1CCCC1)c1ccccc1 (stereo not drawn) [Example 392, N-methyl-N-(1-phenyl-2-(pyrrolidin-1-yl)ethyl)-2-((1-(2,4,6-trichlorophenylsulfonyl)piperidin-2-yl)methoxy)acetamide]
 |  | 100.51% | 100.49% | O=C(COCC1CCCCN1S(=O)(=O)c1c(Cl)cc(Cl)cc1Cl)N1CCC(c2cccnc2)C1 (stereo not drawn) [Example 389]
 |  | 57.92% | 25.48% | O=C(COCC1CCCCN1S(=O)(=O)c1cccc2ccccc12)N1CCCC1CN1CCCCC1 (stereo not drawn) [Example 64, 2-[1-(naphthyl-1-sulfonyl)-piperidin-2-ylmethoxy]-1-(2-piperidin-1-ylmethyl-pyrrolidin-1-yl)-ethanone]
94.2% | 96.7% |  |  | COc1ccccc1N1CCN(C(=O)COCC2CCCCN2S(=O)(=O)c2c(Cl)cccc2Cl)CC1 (stereo not drawn) [Example 498, 2-((1-(2,6-dichlorophenylsulfonyl)piperidin-2-yl)methoxy)-1-(4-(2-methoxyphenyl)piperazin-1-yl)ethanone]
 |  | 104% | 98.6% | COc1cc(C)c(S(=O)(=O)N2CCC[C@H]2COCC(=O)N2CCN(C3CCN(C)CC3)CC2)c(C)c1 [Example 180, (S)-2-((1-(4-methoxy-2,6-diimethylphenylsulfonyl)pyrrolidin-2-yl)methoxy)-1-(4-(1-methylpiperidin-4-yl)piperazin-1-yl)ethanone]
97% | 104% |  |  | COc1cc(C)c(S(=O)(=O)N2CCCCC2COCC(=O)NCc2ccc(N3CCCCC3)cc2)c(C)c1 (stereo not drawn) [Example 14, 2-[1-(4-methoxy-2,6-dimethyl-phenylsulfonyl)-piperidin-2-ylmethoxy]-N-(4-piperidin-1-yl-benzyl)-acetamide]
101% | 104% |  |  | COc1cc(C)c(S(=O)(=O)N2CCCCC2COCC(=O)Nc2cccc(CN3CCCCC3)c2)c(C)c1 (stereo not drawn) [Example 418, 2-((1-(4-methoxy-2,6-dimethylphenylsulfonyl)piperidin-2-yl)methoxy)-N-(3-(piperidin-1-ylmethyl)phenyl)acetamide]
42.7% | 44.4% |  |  | Cc1cc(C)c(S(=O)(=O)N2CCCCC2COCC(=O)Nc2ccc(-n3ccnc3C)cc2)c(C)c1 (stereo not drawn) [Example 87, N-[4-(2-methyl-imidazol-1-yl)-phenyl]-2-[1-(2,4,6-trimethyl-phenylsulfonyl)-piperidin-2-ylmethoxy]-acetamide]
104% | 91% |  |  | CN1CCN(C2CCN(C(=O)COCC3CCCN3S(=O)(=O)c3c(Cl)cccc3Cl)CC2)CC1 (stereo not drawn) [Example 285, 2-((1-(2,6-dichlorophenylsulfonyl)pyrrolidin-2-yl)methoxy)-1-(4-(4-methylpiperazin-1-yl)piperidin-1-yl)ethanone]
102% | 102% |  |  | COc1cc(C)c(S(=O)(=O)N2CCCCC2COCC(=O)N2CCC(COc3ccncc3)CC2)c(C)c1 (stereo not drawn) [Example 188, 2-((1-(4-methoxy-2,6-dimethylphenylsulfonyl)piperidin-2-yl)methoxy)-1-(4-((pyridin-4-yloxy)methyl)piperidin-1-yl)ethanone]
50.6% | 95.4% |  |  | O=C(COCC1CCCCN1S(=O)(=O)c1ccc(Br)cc1)N1CCC(CCN2CCCC2)CC1 (stereo not drawn) [Example 125, 2-((1-(4-bromophenylsulfonyl)piperidin-2-yl)methoxy)-1-(4-(2-(pyrrolidin-1-yl)ethyl)piperidin-1-yl)ethanone]
104% | 98.5% |  |  | CN1CCC(N2CCN(C(=O)COCC3CCCCN3S(=O)(=O)c3ccc(C(F)(F)F)cc3Cl)CC2)CC1 (stereo not drawn) [Example 138, 2-((1-(2-chloro-4-(trifluoromethyl)phenylsulfonyl)piperidin-2-yl)methoxy)-1-(4-(1-methylpiperidin-4-yl)piperazin-1-yl)ethanone]
45.8% | 98.5% |  |  | COc1cc(C)c(S(=O)(=O)N2CCCCC2COCC(=O)NCC(c2ccccc2Cl)N2CCOCC2)c(C)c1 (stereo not drawn) [Example 251, N-(2-(2-chlorophenyl)-2-morpholinoethyl)-2-((1-(4-methoxy-2,6-dimethylphenylsulfonyl)piperidin-2-yl)methoxy)acetamide]
98.5% | 99.2% |  |  | Cc1cccc(Cl)c1S(=O)(=O)N1CCC[C@H]1COCC(=O)N1CCC(CCN2CCCC2)CC1 [Example 161, (S)-2-((1-(2-chloro-6-methylphenylsulfonyl)pyrrolidin-2-yl)methoxy)-1-(4-(2-(pyrrolidin-1-yl)ethyl)piperidin-1-yl)ethanone hydrochloride]
99.9% | 100% |  |  | COc1cc(C)c(S(=O)(=O)N2CCCCC2COCC(=O)N2CCN(CCn3c(C)ccc3C)CC2)c(C)c1 (stereo not drawn) [Example 559, 1-(4-(2-(2,5-dimethyl-1H-pyrrol-1-yl)ethyl)piperazin-1-yl)-2-((1-(4-methoxy-2,6-dimethylphenylsulfonyl)piperidin-2-yl)methoxy)ethanone]
